The text below walks through data of patent US10336792B2, “Antimicrobial peptide dendrimers” (priority 2014, dated 2019).

Values after ≈ are worked out from the molar mass of the structure shown. Positions of bridges follow the written chain, without caps; N, C: chain ends. Residues, ends and D or L forms follow the SMILES beside them. Groups on a side chain read outwards from the residue. Chains are numbered I, II in the order given. *: point of attachment. Palmitoyl = CCCCCCCCCCCCCCCC(=O)* Bounds are passed on as bounds.

Common to all, as to type: cell-based
Assay [1] has as its system Bacillus subtilis (strain BR151). The settings on record: strain BR151. Here is the method: (§1) Antimicrobial activity was assayed against Bacillus subtilis (strain BR151), Escherichia coli (strain DH5α) and Pseudomonas aeruginosa (strain PA01). Microdilution broth method was used to determine the minimal inhibitory concentration (MIC). A colony of bacteria was grown in LB-medium overnight at 37° C. The concentration was quantified by measuring absorbance at 600 nm and diluted to OD600=0.1 (1×10^8 CFU/mL). The samples were prepared as stock solutions of 1 mg mL^−1 in H2O and diluted serially by ⅔ in nutrient LB in a 96-well microtiterplate (Cornstar, polypropylene, untreated). The sample solutions (50 μL) were mixed with the diluted bacterial suspension with an OD600 nm of 0.001 (50 μL). […] The plates were incubated at 37° C. until satisfactory growth (18-24 h). For each test, two columns of the plate were kept for sterility control (SC, broth only) and growth control (GC, broth with bacterial inoculums, no antibiotics). 10 μL of a solution of MTT (0.1% in H2O) was added to each well. The minimal inhibitory concentration (MIC) was defined as the lowest concentration of the antimicrobial substance (peptide dendrimer) that inhibited visible growth of the tested bacteria (yellow) with the unaided eye. For microbiological study the linear peptide LysTyrLysLysAlaLeuLysLysLeuAlaLysLeuLeu (SEQ ID No. 1) was used as reference.
(§2) The AMPD library was tested for their antimicrobial activity against B. subtilis BR151, a Gram-positive bacterium and E. coli DH5α, another Gram-negative bacterium, to cover a broader spectrum of different bacteria. […] Therefore no explicit SAR can be established, but clearly the hydrophobic amino acids Ala and Tyr seem to have a significant influence in reducing activity.

For assay [2], the system named is Escherichia coli (strain DH5α). The note with it: DH5α. The method, then: as §1, §2
Assay [3] concerns Pseudomonas aeruginosa (strain PA01). The assay can be described thus: microbe, parasite or virus in culture. The note with it: strain. The method, then: as §1
All peptides were tested for their activity against P. aeruginosa PAO1 in a broth dilution assay (Wiegand, I. et al., 2008, Nat. Protoc., 3, 163-75; Clinical and Laboratory Standards Institute document M7-A7 7th Edition) to determine the MIC (minimal inhibitory concentration) values. The stock solutions of the peptide dendrimers were diluted serially by ⅔ in nutrient LB in 96-well microtiter plates. Bacteria were grown in nutrient LB overnight at 37° C. After dilution the bacteria were added to the peptides and incubated overnight (18-24 h) at 37° C. […] The position of the amino acids between the branching units seems to be optimal if the hydrophobic amino acid is the first counting from C-terminus and the charged one is on the second position. Introducing Ala as additional hydrophobic amino acid reduces activity (MSt-120). […] Also assembling charged or hydrophobic sections between the branching units leads to loss of activity whereas altering L-amino acids to D-amino acids maintains activity leading to the hypothesis that the mechanism of action should not be receptor mediated.

For the compound `CC(C)C[C@H](NC(=O)[C@H](CCCCN)NC(=O)[C@H](CC(C)C)NC(=O)[C@H](CCCCN)NC(=O)[C@H](CC(C)C)NC(=O)[C@H](CCCCN)NC(=O)[C@H](CC(C)C)NC(=O)[C@H](CCCCN)NC(=O)[C@H](CC(C)C)NC(=O)[C@H](CCCCN)NC(=O)[C@H](CC(C)C)NC(=O)[C@H](CCCCN)NC(=O)[C@H](CC(C)C)NC(=O)[C@@H](N)CCCCN)C(N)=O` [MSt-117, KLKLKLKLKLKLKL, reference compound] (H-KLKLKLKLKLKLKL-NH2), in assay [1], the “MIC B. subtilis BR151” value was 14 mg/L (≈ 8.2 µM). In assay [2], the “MIC E. coli DH5α” value was 13 mg/L (≈ 7.62 µM).
The corresponding values for `CC(C)C[C@H](NC(=O)[C@H](CC(C)C)NC(=O)[C@H](CCCCNC(=O)[C@H](CC(C)C)NC(=O)[C@H](CC(C)C)NC(=O)[C@H](CCCCNC(=O)[C@H](CCCCN)NC(=O)[C@H](CCCCN)NC(=O)[C@H](CCCCNC(=O)[C@H](CCCCN)NC(=O)[C@@H](N)CCCCN)NC(=O)[C@H](CCCCN)NC(=O)[C@@H](N)CCCCN)NC(=O)[C@H](CCCCN)NC(=O)[C@H](CCCCN)NC(=O)[C@H](CCCCNC(=O)[C@H](CCCCN)NC(=O)[C@@H](N)CCCCN)NC(=O)[C@H](CCCCN)NC(=O)[C@@H](N)CCCCN)NC(=O)[C@H](CC(C)C)NC(=O)[C@H](CC(C)C)NC(=O)[C@H](CCCCNC(=O)[C@H](CCCCN)NC(=O)[C@H](CCCCN)NC(=O)[C@H](CCCCNC(=O)[C@H](CCCCN)NC(=O)[C@@H](N)CCCCN)NC(=O)[C@H](CCCCN)NC(=O)[C@@H](N)CCCCN)NC(=O)[C@H](CCCCN)NC(=O)[C@H](CCCCN)NC(=O)[C@H](CCCCNC(=O)[C@H](CCCCN)NC(=O)[C@@H](N)CCCCN)NC(=O)[C@H](CCCCN)NC(=O)[C@@H](N)CCCCN)C(N)=O` [MSt-140, (KK)8(KKK)4(KLL)2(KLL)] (I: H-KKK([Lys-Lys])KKKLLKLL-NH2 / II: H-KKK([Lys-Lys])KKKLL / III: H-KKK([Lys-Lys])KK / IV: H-KKK([Lys-Lys])KK; amide I:6-IV:C, I:9-II:C, II:6-III:C) are 6 mg/L (≈ 1.28 µM) and greater than 95 mg/L.
On to `CC(C)C[C@H](NC(=O)[C@H](CC(C)C)NC(=O)[C@H](CCCCNC(=O)[C@H](CCCCN)NC(=O)[C@H](CCCCN)NC(=O)[C@H](CCCCNC(=O)[C@H](CC(C)C)NC(=O)[C@H](CC(C)C)NC(=O)[C@H](CCCCNC(=O)[C@H](CCCCN)NC(=O)[C@@H](N)CCCCN)NC(=O)[C@H](CCCCN)NC(=O)[C@@H](N)CCCCN)NC(=O)[C@H](CC(C)C)NC(=O)[C@H](CC(C)C)NC(=O)[C@H](CCCCNC(=O)[C@H](CCCCN)NC(=O)[C@@H](N)CCCCN)NC(=O)[C@H](CCCCN)NC(=O)[C@@H](N)CCCCN)NC(=O)[C@H](CCCCN)NC(=O)[C@H](CCCCN)NC(=O)[C@H](CCCCNC(=O)[C@H](CC(C)C)NC(=O)[C@H](CC(C)C)NC(=O)[C@H](CCCCNC(=O)[C@H](CCCCN)NC(=O)[C@@H](N)CCCCN)NC(=O)[C@H](CCCCN)NC(=O)[C@@H](N)CCCCN)NC(=O)[C@H](CC(C)C)NC(=O)[C@H](CC(C)C)NC(=O)[C@H](CCCCNC(=O)[C@H](CCCCN)NC(=O)[C@@H](N)CCCCN)NC(=O)[C@H](CCCCN)NC(=O)[C@@H](N)CCCCN)C(N)=O` [MSt-179, (KK)8(KLL)4(KKK)2(KLL)] (I: H-KKK([Lys-Lys])LLKKKKLL-NH2 / II: H-KKK([Lys-Lys])LLKKK / III: H-KKK([Lys-Lys])LL / IV: H-KKK([Lys-Lys])LL; amide I:6-IV:C, I:9-II:C, II:6-III:C; N-terminus assumed), for which, in assay [2], the “MIC E. coli DH5α” value was greater than 66 mg/L.
Turning to `CC(C)C[C@H](NC(=O)[C@H](CCCCNC(=O)[C@H](CCCCN)NC(=O)[C@H](CC(C)C)NC(=O)[C@H](CCCCNC(=O)[C@H](CCCCN)NC(=O)[C@H](CC(C)C)NC(=O)[C@H](CCCCNC(=O)[C@H](CCCCN)NC(=O)[C@@H](N)CC(C)C)NC(=O)[C@H](CCCCN)NC(=O)[C@@H](N)CC(C)C)NC(=O)[C@H](CCCCN)NC(=O)[C@H](CC(C)C)NC(=O)[C@H](CCCCNC(=O)[C@H](CCCCN)NC(=O)[C@@H](N)CC(C)C)NC(=O)[C@H](CCCCN)NC(=O)[C@@H](N)CC(C)C)NC(=O)[C@H](CCCCN)NC(=O)[C@H](CC(C)C)NC(=O)[C@H](CCCCNC(=O)[C@H](CCCCN)NC(=O)[C@H](CC(C)C)NC(=O)[C@H](CCCCNC(=O)[C@H](CCCCN)NC(=O)[C@@H](N)CC(C)C)NC(=O)[C@H](CCCCN)NC(=O)[C@@H](N)CC(C)C)NC(=O)[C@H](CCCCN)NC(=O)[C@H](CC(C)C)NC(=O)[C@H](CCCCNC(=O)[C@H](CCCCN)NC(=O)[C@@H](N)CC(C)C)NC(=O)[C@H](CCCCN)NC(=O)[C@@H](N)CC(C)C)C(=O)N[C@@H](CCCCN)C(N)=O` [MSt-199, (LK)8(KLK)4(KLK)2(KLK)] (I: H-LKK([Lys-Leu])LKKLKKLK-NH2 / II: H-LKK([Lys-Leu])LKKLK / III: H-LKK([Lys-Leu])LK / IV: H-LKK([Lys-Leu])LK; amide I:6-IV:C, I:9-II:C, II:6-III:C), the “MIC P. aeruginosa PAO1” value in assay [3] turned out to be 9 mg/L (≈ 1.98 µM). Further, the “MIC B. subtilis BR151” value in assay [1] was 3 mg/L (≈ 0.662 µM).
For the compound `CCCCCCCCCCCCCCCC(=O)NCCCC[C@H](NC(=O)[C@H](CC(C)C)NC(=O)[C@H](CCCCN)NC(=O)[C@H](CCCCNC(=O)[C@H](CC(C)C)NC(=O)[C@H](CCCCN)NC(=O)[C@H](CCCCNC(=O)[C@H](CC(C)C)NC(=O)[C@H](CCCCN)NC(=O)[C@H](CCCCNC(=O)[C@H](CC(C)C)NC(=O)[C@@H](N)CCCCN)NC(=O)[C@H](CC(C)C)NC(=O)[C@@H](N)CCCCN)NC(=O)[C@H](CC(C)C)NC(=O)[C@H](CCCCN)NC(=O)[C@H](CCCCNC(=O)[C@H](CC(C)C)NC(=O)[C@@H](N)CCCCN)NC(=O)[C@H](CC(C)C)NC(=O)[C@@H](N)CCCCN)NC(=O)[C@H](CC(C)C)NC(=O)[C@H](CCCCN)NC(=O)[C@H](CCCCNC(=O)[C@H](CC(C)C)NC(=O)[C@H](CCCCN)NC(=O)[C@H](CCCCNC(=O)[C@H](CC(C)C)NC(=O)[C@@H](N)CCCCN)NC(=O)[C@H](CC(C)C)NC(=O)[C@@H](N)CCCCN)NC(=O)[C@H](CC(C)C)NC(=O)[C@H](CCCCN)NC(=O)[C@H](CCCCNC(=O)[C@H](CC(C)C)NC(=O)[C@@H](N)CCCCN)NC(=O)[C@H](CC(C)C)NC(=O)[C@@H](N)CCCCN)C(N)=O` [MSt-301, (KL)8(KKL)4(KKL)2(KKLKC16)] (I: H-KLK([Leu-Lys])KLKKLKKLK(Palmitoyl)-NH2 / II: H-KLK([Leu-Lys])KLKKL / III: H-KLK([Leu-Lys])KL / IV: H-KLK([Leu-Lys])KL; amide I:6-IV:C, I:9-II:C, II:6-III:C), the “MIC P. aeruginosa PAO1” value in assay [3] was 11 mg/L (≈ 2.24 µM). In addition, the “MIC E. coli DH5α” value in assay [2] is 8 mg/L (≈ 1.63 µM).
Turning to `CCCCCCCCCCCCCCCC(=O)NCCCC[C@H](NC(=O)[C@H](CC(C)C)NC(=O)[C@H](CCCCN)NC(=O)[C@H](CCCCNC(=O)[C@H](CC(C)C)NC(=O)[C@H](CCCCN)NC(=O)[C@H](CCCCNC(=O)[C@H](CC(C)C)NC(=O)[C@@H](N)CCCCN)NC(=O)[C@H](CC(C)C)NC(=O)[C@@H](N)CCCCN)NC(=O)[C@H](CC(C)C)NC(=O)[C@H](CCCCN)NC(=O)[C@H](CCCCNC(=O)[C@H](CC(C)C)NC(=O)[C@@H](N)CCCCN)NC(=O)[C@H](CC(C)C)NC(=O)[C@@H](N)CCCCN)C(N)=O` [MSt-302, (KL)4(KKL)2(KKLKC16)] (I: H-KLK([Leu-Lys])KLKKLK(Palmitoyl)-NH2 / II: H-KLK([Leu-Lys])KL; amide I:6-II:C), in assay [2], the “MIC E. coli DH5α” value was 12 mg/L (≈ 4.88 µM).
